# Square brackets hold non-standard residues; d marks the D form. Peptide text beside a SMILES is read from it.
# System: crushed peroneal nerve; endplates of the EDL
# Assay: Endplate morphology of EDL muscle after peroneal nerve crush (silver-cholinesterase stain)
# Assay type: in vivo, rat
# Experimental: The effect of BIM-22015 regeneration of the crushed peroneal nerve in the rat was assessed using both morphological and physiological studies, as follows. Both locomotor pattern and endplate morphology during the early stages of crushed nerve regeneration were assessed after treatment with BIM-220150 Adult Sprague-Dawley male rats (Taconic Farms) were maintained at 25° C. on a 12 hour light and a 12 hour dark cycle and were supplied with standard rat chow and water ad lib. All surgery was performed under anesthesia with 8% chlorohydrate (0.6 ml/100 g I.P.). Denervation was accomplished using a #5 Dumont forceps with a uniformly filed tip to crush the peroneal nerve. This crush produced a 1 mm wide lesion just proximal to the EDL (extention digitarum longus) muscle. The wound was closed with surgical staples. Following surgery, the animal was immediately administered saline or BIM-22015 in one of the following dosages: (1) 0.9% saline, (2) 10.0 ug BIM-22015, (3) 5.0 ug BIM-22015, (3) 1.0 ug BIM-22015, or (4) 0.1 ug BIM-22015 (per animal). Administration continued once every 48 hours for 5 days; on day 5, the rats were killed and tissues taken for morphological analysis. All injections and surgeries occurred between 10:00 and 12:00 noon.
# Morphological studies of crushed nerve regeneration were performed as follows. On day 5, the rats were anesthetized with 8% chlorohydrate (0.6 ml/100 g IP) before surgery. The animal was placed ventral side down and a skin incision was made on the hindlimb from the lateral epicondyle of the femur to the lateral malleolus in the ankle. The extensor digitorium longus muscle (EDL) was then carefully exposed from its surrounding connective tissue and extreme care taken to preserve the blood supply. The EDL is a heterogenous muscle consisting of both fast white muscle fibers and slow red muscle fibers. It is classified as a fast muscle based upon its isometric twitch parameters. The origin of the EDL is the epicondyle of the femur to the distal tendon which divides into four parts with insertions into the third phalange base of the second to the fifth digits. It is innervated by the peroneal nerve and its blood is supplied by the anterior tibial artery. The muscle was prepared for staining as follows.
# The silver-cholinesterase method of staining of Pecot-Dechavssine et al. (1979 Stain. Technol. 54:25) was used to stain the endplates, or neuromuscular junctions, of the EDL. Briefly, the muscle was fixed in situ by 1% neutral formalin in normal Ringer's solution. The muscle was then excised and placed in fresh 1% neutral formalin solution for extra 3-4 minutes. The endplates were localized with the stain described by Karnovsky et al. (1964, J. Hist. Chem. Cytochem. 12:219) for 7-15 minutes under visual control. After localization, the EDL was soaked in 5% neutral formalin solution for 20 minutes, then washed in Triton X-100 detergent for 1 hour. After the detergent step, the EDL was fixed in 80% ethanol solution for 1 hour. Finally, the endplates were impregnated with silver using 0.5% protargol solution overnight (12-30 hrs., at 37° C.).
# The following day, the excess silver was reduced using a Bodian developer for 18 minutes. The muscle was rinsed in distilled water, finely teased, and mounted using a glycoglyerol mounting gel.
# The endplates were observed using Olympus BH series binocular microscope at a magnification of 100× using an oil immersion objective lens. A low light sensitive video camera mounted on top of the Olympus projected the slide onto a black and white monitor. A Bioquant image digitizer with a manual optic mouse was used to determine the following parameters: (1) endplate […], (2) endplate area, (3) endplate internal branching, and (4) muscle fiber diameter. The Bioquant statistical package was used to determine statistical differences, and the data are expressed as means and standard error of the mean. The Student's t-test and the ANOVA statistical tests were performed. […]
# [1] = BIM 0.1 μG per animal every 48 hours, day 5, A = p < 0.025
# [2] = BIM 0.1 μG per animal every 48 hours, day 5, A = p < 0.025, listed as BIM
# [3] = BIM 1.0 μG per animal every 48 hours, day 5
# [4] = BIM 5.0 μG per animal every 48 hours, day 5
# [5] = BIM 10.0 μG per animal every 48 hours, day 5
compound,measurement,setting,value
"C[C@@H](N)C(=O)N[C@@H](CCC(N)=O)C(=O)N[C@@H](Cc1ccc(O)cc1)C(=O)N[C@@H](Cc1ccccc1)C(=O)N[C@@H](CCCNC(=N)N)C(=O)N[C@@H](Cc1c[nH]c2ccccc12)C(=O)NCC(N)=O [BIM-22015, D--Ala--Gln--Tyr--Phe--Arg--Trp--Gly--NH2] (H-[dA]QYFRWG-NH2)",Endplate Morphology: Muscle Fiber Diameter,"BIM 0.1 μG per animal every 48 hours, day 5",63.6(2.72)
same,Endplate Morphology: Internal Branching,[1],significant increase
same,Endplate Morphology: Perimeter,[1],significant increase
same,Endplate Morphology: Internal Branching,[2],260.5(39.2)
same,Endplate Morphology: Perimeter,[2],244.3(8.63)
same,Endplate Morphology: Internal Branching,[3],201.6(14.2)
same,Endplate Morphology: Perimeter,[3],231.7(5.22)
same,Endplate Morphology: Muscle Fiber Diameter,"BIM 1.0 μG per animal every 48 hours, day 5, C = p < 0.005",high muscle hypertrophy
same,Endplate Morphology: Muscle Fiber Diameter,"BIM 1.0 μG per animal every 48 hours, day 5, C = p < 0.005, listed as BIM",76.9(1.70)
same,Endplate Morphology: Internal Branching,[4],220.2(18.7)
same,Endplate Morphology: Muscle Fiber Diameter,[4],74.2(2.35)
same,Endplate Morphology: Perimeter,"BIM 5.0 μG per animal every 48 hours, day 5, B = p < 0.050",significant increase
same,Endplate Morphology: Perimeter,"BIM 5.0 μG per animal every 48 hours, day 5, B = p < 0.050, listed as BIM",204.2(5.98)
same,Endplate Morphology: Internal Branching,[5],173.2(14.6)
same,Endplate Morphology: Perimeter,[5],231.7(12.2)
same,Endplate Morphology: Muscle Fiber Diameter,"BIM 10.0 μG per animal every 48 hours, day 5, C = p < 0.005",high muscle hypertrophy
same,Endplate Morphology: Muscle Fiber Diameter,"BIM 10.0 μG per animal every 48 hours, day 5, C = p < 0.005, listed as BIM",82.8(3.74)

# From US5462927A, “Peptides aiding nerve regeneration” (The Administrators of the Tulane Educational Fund, priority 1992, dated 1995)
